Measurements taken from patent publication US12398196B2, “Fused polypeptide with multifunctional activities and use thereof” (NANJING ANJI BIOLOGICAL TECHNOLOGY CO., LTD., priority 2019, dated 2025).

How the values were obtained:
Streptococcus pneumoniae = assay: Mouse pneumonia model, bacterial pneumonia; format: in vivo, BALB/C mice; design: unit not given here; details: nasal drip, average values + standard deviation
From the text: (§1) A mouse pneumonia model was successfully established by using a nasal drip method. BALB/C mice with a body weight of 18-24 g were selected, and then anesthetized with ether on day 0, day 1 and day 2, respectively, prepared Streptococcus pneumoniae bacteria solution, adenovirus concentrated solution, Mycoplasma pneumoniae, Chlamydia pneumoniae, protozoa and pneumonia fungi were slowly dropped into the nasal cavity of the mice, so that the bacteria solutions entered the trachea and bronchi, and the bacteria solutions were prevented from flowing into the esophagus during the operation to avoid inactivation of the bacteria solutions, so that the mouse pneumonia model was established. After the model was successfully established, the polypeptide according to the present disclosure was administered, as shown in FIG. 9 and Table 7. […] The experimental results are represented on the basis of average values+standard deviation.

adenovirus = assay: Mouse pneumonia model, viral pneumonia; format: in vivo, BALB/C mice; design: unit not given here; details: nasal drip, average values + standard deviation
From the text: as §1

Mycoplasma pneumoniae = assay: Mouse pneumonia model, mycoplasma pneumonia; format: in vivo, BALB/C mice; design: unit not given here; details: nasal drip, average values + standard deviation
From the text: as §1

Chlamydia pneumoniae = assay: Mouse pneumonia model, chlamydia pneumonia; format: in vivo, BALB/C mice; design: unit not given here; details: nasal drip, average values + standard deviation
From the text: as §1

protozoa = assay: Mouse pneumonia model, protozoal pneumonia; format: in vivo, BALB/C mice; design: unit not given here; details: nasal drip, average values + standard deviation
From the text: as §1

pneumonia fungi = assay: Mouse pneumonia model, fungal pneumonia; format: in vivo, BALB/C mice; design: unit not given here; details: nasal drip, average values + standard deviation
From the text: as §1

[1] = tested on: multiple pulmonary infections; assay: Mouse pneumonia model, pneumonia caused by pulmonary infections; format: in vivo, BALB/C mice; design: unit not given here; details: nasal drip, average values + standard deviation
From the text: as §1

[2] = tested on: SD rats with CCl4-induced hepatic fibrosis; assay: CCl4-induced hepatic fibrosis animal model; format: in vivo; details: CCl4 8 weeks, polypeptides 6 mg/kg s.c. once a day, colchicine intragastric 5 times/week
Method: Source and strain: SPF level, SD rats, provided by Shanghai Xipuer-Bikai laboratory Animal Co., Ltd. (laboratory animal license: SCXK (hu) 2013-0016)
There were 10 rats in each group. Modeling was performed on the rats. Each group other than the blank group was injected with 40% CCl4 intraperitoneally twice a week, the first injection was performed at 3 mL/kg, and then administration was performed at 2 mL/kg. Administration was performed for 8 weeks, and a total of 16 injections were provided to induce hepatic fibrosis. After the intraperitoneal injection of CCl4 for the fourth time, polypeptide therapy was started on the next day, and administration was performed by subcutaneous injection once a day until the end of induction. After the intraperitoneal injection of CCl4 for the fourth time, colchicine was administrated on the next day at 200 μg/kg, 5 times a week, and intragastric administration therapy was implemented. After induction for 8 weeks, the administration was stopped. On the second day, the SD rats were dissected, blood was taken, and the liver tissue was taken and stored in a refrigerator at −80° C. for later use. The expressions of AST and ALT in serum and HYP in the rat liver tissue were detected.

[3] = tested on: SD rats with bleomycin-induced pulmonary fibrosis; assay: Bleomycin-induced pulmonary fibrosis animal model; format: in vivo
Method: Source and strain: clean SD rats, provided by Comparative Medicine Center of Yangzhou University (laboratory animal production license: SCXK (Su) 2012-0004); Certification of Using of Laboratory Animal: SYXK (Su) 2012-0035).
SD rats were anesthetized by intraperitoneal injection of 1 mL/100 g 4% chloral hydrate. After anesthesia, the rats were fixed and their necks were disinfected by using cotton with 75% alcohol. The skin of the rat neck was longitudinally cut with scissors, and the fascia and muscle were longitudinally bluntly torn with tweezers to expose the trachea. A syringe was inserted into the trachea to inject 5 mg/kg bleomycin, while a blank group was injected with an equal amount of normal saline. Then a rat plate was quickly erected and rotated, the rats' breathing was observed, the neck wound was sterilized after rotation and was sewn, and an amoxicillin anti-inflammatory drug was sprinkled on the suture. After the operation, the rats were put back into a dry and clean cage for resting, waiting was performed for awakening. The rats were awakened after about 1-2 hours, and then fed normally. On the 7th day after modeling, modeling group animals randomly fell into a model group, a Nintedanib positive drug group, polypeptide I, II, III and IV dosage groups, and a normal control group, and the groups were administered separately for an administration cycle of 14 days. Living situations of rats were observed every day and their weights were weighed. After administration for 14 days, the eyeballs were removed and blood was taken, the rats were dissected, and lungs were taken. The content of TGF-β1 in serum and the content of HYP in lung tissues were detected.

[4] = bleomycin-induced pulmonary fibrosis, polypeptides 10 mg/kg s.c. twice a day, Nintedanib 25 mg/kg intragastric once a day, 14 days

## Penicillin [reference compound]
Streptococcus pneumoniae
  Inhibitory effect on pulmonary infections: Bacterial pneumonia: 37.05 ± 4.35
adenovirus
  Inhibitory effect on pulmonary infections: Viral pneumonia: 48.07 ± 2.07
Mycoplasma pneumoniae
  Inhibitory effect on pulmonary infections: Mycoplasma pneumonia: 39.78 ± 5.23
Chlamydia pneumoniae
  Inhibitory effect on pulmonary infections: Chlamydia pneumonia: 32.57 ± 3.13
protozoa
  Inhibitory effect on pulmonary infections: Protozoal pneumonia: 40.34 ± 3.02
Pneumonia fungi
  Inhibitory effect on pulmonary infections: Fungal pneumonia: 36.87 ± 2.82
[1]
  Inhibitory effect on pulmonary infections: Pneumonia caused by pulmonary infections: 39.56 ± 4.35

## COc1cc2c(c(OC)c1OC)-c1ccc(OC)c(=O)cc1[C@@H](NC(C)=O)CC2 [Colchicine, reference compound]
[2]
  content of ALT in serum, difference from model group: significantly lower than those in the model group
  content of AST in serum, difference from model group: highly significantly different from the model group (** P<0.01)
  content of HYP in the liver tissue, difference from model group: highly significantly different from the model group (*** P<0.001)

## COC(=O)c1ccc2c(c1)NC(=O)/C2=C(\Nc1ccc(N(C)C(=O)CN2CCN(C)CC2)cc1)c1ccccc1 [Nintedanib, reference compound]
[3]; bleomycin 5 mg/kg intratracheal, polypeptides 10 mg/kg subcutaneous twice a day for 14 days, positive drug Nintedanib intragastric once a day, model group 57.1%
  Survival rate (%): 85.7%
[3]; [4]
  content of HYP in lung tissues, difference from model group: highly significantly different from the model group (** P<0.01)
  content of TGF-β1 in serum, difference from model group: highly significantly different from the model group (*** P<0.001)
